Results taken from patent US20240216383A1, “FORMULATIONS AND METHODS FOR TREATING ERECTILE DYSFUNCTION” (Strategic Drug Solutions, Inc., priority 2020, published 2024).
Values after ≈ are worked out from the molar mass of the structure shown. Counter-ions that a name gives are not always drawn. Like-named read-outs stand apart in the source and are kept apart here. Blank lines part the entries; values can stand above or below the molecule they belong to.

Key:
[1] = cited from earlier work; for half-life: oral, terminal half-life
[2] = Saturated solubility of sildenafil in water and organic-aqueous solvents (shake flask, HPLC); type: physicochemical; details: for solubility: water, thermodynamic from solid
Excerpt: Afterwards the solution was filtered using the VWR 0.2 mcron filter.

[3] = cited from earlier work
[4] = cited from earlier work; remark: listed apart in the source
[5] = Saturated solubility of vardenafil API in water and organic-aqueous solvents (shake flask, HPLC); type: physicochemical; details: for solubility: water, pH 4, aqueous buffer, thermodynamic from solid, pH4
Description: For screening of various organic solvents, the solubility of vardenafil API in different % ethanol-aqueous mixtures was first investigated and compared to solubility in pure water. As disclosed herein, the solutions were prepared by the “shake flask” method. Briefly, increasing amounts of vardenafil API were added to different mixtures until saturation. The saturated organic-aqueous mixtures were adjusted for pH (at the range pH 3.5-7.5) with the use of a pH meter. The saturated solution was shaken slowly with a magnetic stirrer at room temperature or shaken rapidly several times a day for 24 hours or longer, up to 3 days. Afterwards, the solutions were filtered using the VWR 0.2 micron filter. The filtrate was then used for inspection of clarity and concentration was determined by HPLC. In addition, the saturated solubility of vardenafil various organic-aqueous solution, e.g., in glycerin (glycerol), polyethylene glycol 400 (PEG) and combination of two organic solvents were investigated. Vardenafil solubility in some other representative organic-aqueous solutions were also investigated.
The standard curves were prepared in MeOH and mixed with PBS so that the analytical matrices were the same.

[6] = Vardenafil permeability (Papp) and flux (Jss) by PAMPA; type: in vitro ADME
Excerpt: As disclosed herein, the permeability of vardenafil API in different solvents at room temperature and atmospheric pressure was screened using in vitro PAMPA. The PAMPA predicts passive absorption of drugs and is suitable for studies with many solutions including ethanol (up to concentration of 30%)(22-24). The unit of measurement is the apparent permeability (Papp) obtained at steady state, expressed as cm/second. Also another associated measurement is the maximum flux (Jss) at a particular pH, expressed as the quantity of drug across the unit area per sec, is calculated from the Papp and saturated solubility. […]
Apparent permeability coefficient (Papp) determination, expressed as cm/sec, was calculated based on the following equation at steady state (24) where • VD=volume in donor chamber • VA=volume in acceptor chamber • A=effective area of the membrane (PAMPA: 0.3 cm^2) • t=duration of the permeability study • CA=drug concentration in the acceptor well at the end of the study • CE=equilibrium concentration in both wells, and […]
Steady state flux (Jss). The Jss, expressed as ug/sec/cm^2, was calculated based on the following equation where • CD=loading concentration in the donor chamber […]

SMILES: CCCc1nc(C)c2c(=O)[nH]c(-c3cc(S(=O)(=O)N4CCNCC4)ccc3OCC)nn12 [MI metabolite]
share of total pharmacologic activity ([1]; metabolite of vardenafil): about 7%

SMILES: CCCc1nn(C)c2c(=O)[nH]c(-c3cc(S(=O)(=O)N4CCN(C)CC4)ccc3OCC)nc12 [sildenafil]
aqueous solubility ([2]; sildenafil, pHmax 4.2): 3.54 mg/mL (≈ 7.46 mM) | solubility ([2]; pH 4, aqueous buffer, read-out: aqueous saturated solubility): < 5 mg/mL | solubility ([2]; pH 4.55, aqueous buffer, read-out: aqueous solubility): 3.34 mg/mL (≈ 7.04 mM) | absolute bioavailability ([1]; oral administration): about 41% | mean time (Tmax) for maximum plasma concentration ([1]; oral administration): about 60 min | half-life [1]: about 4 h | log P [3]: 2.7 | pKa ([3]; vardenafil: 7.15 mostly basic, 9.86 mostly acidic): 7.2 | solubility in water ([4]; pH 3-4): about 7.0 mg/ml | solubility in water ([4]; pH 5): ~2.1 mg/mL (≈ 4.42 mM) | solubility in water ([4]; pH 7): ~0.03 mg/mL (≈ 0.0632 mM)

SMILES: CN1CC(=O)N2[C@H](c3ccc4c(c3)OCO4)c3[nH]c4ccccc4c3C[C@@H]2C1=O [tadalafil]
mean time (Tmax) for maximum plasma concentration ([1]; following a single dose): about 2 h | absolute bioavailability ([1]; oral administration): ≤ 80% | half-life [1]: about 17.5 h

time until precipitation ([5]; solubilized in 12% alcohol): ≤ 24 h | solubility ([5]; read-out: mean saturated solubility in water): < 20 mg/mL
SMILES: CCCc1nc(C)c2c(=O)[nH]c(-c3cc(S(=O)(=O)N4CCN(CC)CC4)ccc3OCC)nn12 [vardenafil API, vardenafil hydrochloride trihydrate]

solubility ([5]; read-out: V(ssol)pHmax, aqueous saturated solubility at pHmax): 18.2 mg/mL | JsspHmax ([6]; vardenafil aqueous, pH4): 7.74 E-05 ug/s/cm^2 | Jss(ref) ([6]; vardenafil, Solmin 20 mg/ml, IN dose 2 mg/nostril, pHmax pH4): 8.5E-05 ug/s/cm^2
SMILES: CCCc1nc(C)c2c(=O)[nH]c(-c3cc(S(=O)(=O)N4CCN(CC)CC4)ccc3OCC)nn12 [vardenafil]
absolute bioavailability ([1]; oral administration): about 15% | mean time (Tmax) for maximum plasma concentration ([1]; oral administration): about 60 min | log P [3]: 3.64 | solubility ([4]; pH 1): about 8.8 g/L | solubility ([4]; pH 2): ~3 mg/mL (≈ 6.14 mM) | solubility ([4]; pH 3): ~1.6 mg/mL (≈ 3.27 mM) | aqueous solubility ([4]; pH 4-7): less than 2 mg/ml | solubility ([4]; pH 4): ~0.88 mg/mL (≈ 1.8 mM) | solubility ([4]; pH 5): ~0.16 mg/mL (≈ 0.327 mM) | solubility ([4]; pH 6): ~0.019 mg/mL (≈ 0.0389 mM)
